Results from ChEMBL document CHEMBL1138507, “Synthesis, activity, and pharmacophore development for isatin-beta-thiosemicarbazones with selective activity toward multidrug-resistant cells” (J Med Chem, 2009).

Key:
[1] = cells; settings: Homo sapiens, KB 3-1, 72 h
Description: Cytotoxicity against human P-gp-negative KB-3-1 cells after 72 hrs by MTT assay

[2] = cells; settings: Homo sapiens, KB-V1, 72 h
Description: Cytotoxicity against human P-glycoprotein-expressing KBV1 cells after 72 hrs by MTT assay

[3] = biological target: Ribosomal protein S6 kinase alpha-1 (Homo sapiens, UniProt Q15418)
[4] = biological target: Serine/threonine-protein kinase pim-1 (Homo sapiens, UniProt P11309)
[5] = biological target: T1, Serine/threonine-protein kinase Chk1 (Homo sapiens, UniProt O14757)
T1 sequence (O14757 whole entry): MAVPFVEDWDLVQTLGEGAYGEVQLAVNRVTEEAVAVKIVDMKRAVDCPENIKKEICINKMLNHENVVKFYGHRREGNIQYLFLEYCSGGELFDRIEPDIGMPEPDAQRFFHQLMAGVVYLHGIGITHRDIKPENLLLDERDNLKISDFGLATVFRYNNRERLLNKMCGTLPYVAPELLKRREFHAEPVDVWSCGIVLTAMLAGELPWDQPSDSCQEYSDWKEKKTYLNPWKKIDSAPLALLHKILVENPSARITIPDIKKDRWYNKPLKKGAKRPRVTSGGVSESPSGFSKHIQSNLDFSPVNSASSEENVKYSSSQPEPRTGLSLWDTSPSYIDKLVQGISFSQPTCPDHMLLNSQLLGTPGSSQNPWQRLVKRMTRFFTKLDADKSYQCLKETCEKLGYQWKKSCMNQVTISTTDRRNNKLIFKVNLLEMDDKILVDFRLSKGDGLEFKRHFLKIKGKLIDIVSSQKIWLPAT

[6] = biological target: Tyrosine-protein kinase ABL1 (Homo sapiens, UniProt P00519); experiment: Inhibition of ABL1
Tyrosine-protein kinase ABL1, sequence (P00519 whole entry): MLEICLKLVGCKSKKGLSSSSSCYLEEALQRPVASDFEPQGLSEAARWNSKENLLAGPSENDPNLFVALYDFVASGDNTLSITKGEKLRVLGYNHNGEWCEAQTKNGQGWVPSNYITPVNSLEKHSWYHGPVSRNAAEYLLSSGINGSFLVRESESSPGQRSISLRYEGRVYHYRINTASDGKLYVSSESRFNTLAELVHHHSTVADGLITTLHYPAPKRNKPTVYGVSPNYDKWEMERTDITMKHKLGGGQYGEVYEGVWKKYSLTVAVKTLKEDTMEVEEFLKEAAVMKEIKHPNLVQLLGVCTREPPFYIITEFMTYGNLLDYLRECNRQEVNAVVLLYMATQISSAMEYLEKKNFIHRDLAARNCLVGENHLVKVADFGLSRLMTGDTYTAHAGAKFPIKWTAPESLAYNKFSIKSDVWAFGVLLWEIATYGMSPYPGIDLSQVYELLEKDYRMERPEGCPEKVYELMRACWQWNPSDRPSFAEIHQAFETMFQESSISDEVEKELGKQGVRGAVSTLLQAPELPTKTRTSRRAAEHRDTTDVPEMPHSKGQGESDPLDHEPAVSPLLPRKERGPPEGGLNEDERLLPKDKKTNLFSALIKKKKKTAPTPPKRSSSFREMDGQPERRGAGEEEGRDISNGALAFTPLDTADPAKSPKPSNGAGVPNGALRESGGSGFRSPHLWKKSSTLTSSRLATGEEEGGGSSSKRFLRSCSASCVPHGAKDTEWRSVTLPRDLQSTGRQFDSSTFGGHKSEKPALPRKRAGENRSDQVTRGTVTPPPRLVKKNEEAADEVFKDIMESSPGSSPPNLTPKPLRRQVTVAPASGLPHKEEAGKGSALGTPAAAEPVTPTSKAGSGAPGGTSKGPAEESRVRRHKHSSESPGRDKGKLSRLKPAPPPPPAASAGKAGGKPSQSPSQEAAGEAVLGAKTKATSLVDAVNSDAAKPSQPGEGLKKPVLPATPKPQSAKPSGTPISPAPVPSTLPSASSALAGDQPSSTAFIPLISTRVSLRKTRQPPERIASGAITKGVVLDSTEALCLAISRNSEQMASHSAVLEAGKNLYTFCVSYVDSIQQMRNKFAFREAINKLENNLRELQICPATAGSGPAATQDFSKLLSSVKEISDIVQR

[7] = biological target: Protein kinase C alpha type (Homo sapiens, UniProt P17252); experiment: Inhibition of PKCalpha
[8] = biological target: T2, Receptor-type tyrosine-protein kinase FLT3 (Homo sapiens, UniProt P36888)
T2 sequence (P36888 whole entry): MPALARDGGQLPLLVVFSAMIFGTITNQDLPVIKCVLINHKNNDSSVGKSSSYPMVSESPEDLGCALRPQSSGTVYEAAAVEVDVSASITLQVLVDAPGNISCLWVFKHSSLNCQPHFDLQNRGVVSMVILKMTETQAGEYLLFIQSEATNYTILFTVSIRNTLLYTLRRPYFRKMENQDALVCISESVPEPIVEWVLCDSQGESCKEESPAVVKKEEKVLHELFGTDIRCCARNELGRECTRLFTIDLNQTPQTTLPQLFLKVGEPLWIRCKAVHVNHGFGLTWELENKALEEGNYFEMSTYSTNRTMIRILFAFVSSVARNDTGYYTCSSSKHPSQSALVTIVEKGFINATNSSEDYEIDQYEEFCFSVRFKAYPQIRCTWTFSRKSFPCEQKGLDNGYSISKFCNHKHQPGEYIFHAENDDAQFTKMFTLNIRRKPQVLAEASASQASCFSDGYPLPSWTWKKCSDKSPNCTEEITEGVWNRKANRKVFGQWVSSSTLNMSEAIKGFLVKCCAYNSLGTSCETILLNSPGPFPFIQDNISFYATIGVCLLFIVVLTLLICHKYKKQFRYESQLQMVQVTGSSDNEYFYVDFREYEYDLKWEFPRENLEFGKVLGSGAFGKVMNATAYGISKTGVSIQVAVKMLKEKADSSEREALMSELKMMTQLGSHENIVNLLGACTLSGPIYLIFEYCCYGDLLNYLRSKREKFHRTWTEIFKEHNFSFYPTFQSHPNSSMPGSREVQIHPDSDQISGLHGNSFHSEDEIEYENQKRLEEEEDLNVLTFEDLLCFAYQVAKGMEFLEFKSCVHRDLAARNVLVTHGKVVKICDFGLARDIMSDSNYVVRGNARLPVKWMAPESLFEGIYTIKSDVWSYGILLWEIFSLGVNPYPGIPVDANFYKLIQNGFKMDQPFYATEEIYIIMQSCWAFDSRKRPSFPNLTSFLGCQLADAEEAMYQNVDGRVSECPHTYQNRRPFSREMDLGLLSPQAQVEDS

[9] = biological target: Cyclin-dependent kinase 2 (Homo sapiens, UniProt P24941); experiment: Inhibition of CDK2/cyclinA
[10] = biological target: Serine/threonine-protein kinase PLK2 (Homo sapiens, UniProt Q9NYY3)
Serine/threonine-protein kinase PLK2, sequence (Q9NYY3 whole entry): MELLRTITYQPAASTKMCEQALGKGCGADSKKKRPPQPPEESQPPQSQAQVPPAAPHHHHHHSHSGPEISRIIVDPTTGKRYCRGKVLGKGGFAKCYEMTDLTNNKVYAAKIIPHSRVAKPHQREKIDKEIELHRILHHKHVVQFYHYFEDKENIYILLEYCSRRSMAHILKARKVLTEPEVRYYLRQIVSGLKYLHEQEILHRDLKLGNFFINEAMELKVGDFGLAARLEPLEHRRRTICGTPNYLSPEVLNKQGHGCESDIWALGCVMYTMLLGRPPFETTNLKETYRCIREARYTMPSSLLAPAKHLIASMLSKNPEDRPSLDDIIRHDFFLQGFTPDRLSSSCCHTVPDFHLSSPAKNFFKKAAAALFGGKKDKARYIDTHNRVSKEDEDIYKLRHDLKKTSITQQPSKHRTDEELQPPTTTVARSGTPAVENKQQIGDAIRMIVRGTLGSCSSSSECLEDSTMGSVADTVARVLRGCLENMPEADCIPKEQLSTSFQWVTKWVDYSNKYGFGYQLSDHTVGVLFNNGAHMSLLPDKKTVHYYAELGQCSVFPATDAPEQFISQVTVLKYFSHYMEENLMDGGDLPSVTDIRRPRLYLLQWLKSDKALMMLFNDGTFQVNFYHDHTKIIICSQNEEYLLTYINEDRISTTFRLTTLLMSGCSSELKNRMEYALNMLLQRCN

[11] = biological target: Rho-associated protein kinase 1 (Homo sapiens, UniProt Q13464); experiment: Inhibition of ROCK1
Rho-associated protein kinase 1, sequence (Q13464 whole entry): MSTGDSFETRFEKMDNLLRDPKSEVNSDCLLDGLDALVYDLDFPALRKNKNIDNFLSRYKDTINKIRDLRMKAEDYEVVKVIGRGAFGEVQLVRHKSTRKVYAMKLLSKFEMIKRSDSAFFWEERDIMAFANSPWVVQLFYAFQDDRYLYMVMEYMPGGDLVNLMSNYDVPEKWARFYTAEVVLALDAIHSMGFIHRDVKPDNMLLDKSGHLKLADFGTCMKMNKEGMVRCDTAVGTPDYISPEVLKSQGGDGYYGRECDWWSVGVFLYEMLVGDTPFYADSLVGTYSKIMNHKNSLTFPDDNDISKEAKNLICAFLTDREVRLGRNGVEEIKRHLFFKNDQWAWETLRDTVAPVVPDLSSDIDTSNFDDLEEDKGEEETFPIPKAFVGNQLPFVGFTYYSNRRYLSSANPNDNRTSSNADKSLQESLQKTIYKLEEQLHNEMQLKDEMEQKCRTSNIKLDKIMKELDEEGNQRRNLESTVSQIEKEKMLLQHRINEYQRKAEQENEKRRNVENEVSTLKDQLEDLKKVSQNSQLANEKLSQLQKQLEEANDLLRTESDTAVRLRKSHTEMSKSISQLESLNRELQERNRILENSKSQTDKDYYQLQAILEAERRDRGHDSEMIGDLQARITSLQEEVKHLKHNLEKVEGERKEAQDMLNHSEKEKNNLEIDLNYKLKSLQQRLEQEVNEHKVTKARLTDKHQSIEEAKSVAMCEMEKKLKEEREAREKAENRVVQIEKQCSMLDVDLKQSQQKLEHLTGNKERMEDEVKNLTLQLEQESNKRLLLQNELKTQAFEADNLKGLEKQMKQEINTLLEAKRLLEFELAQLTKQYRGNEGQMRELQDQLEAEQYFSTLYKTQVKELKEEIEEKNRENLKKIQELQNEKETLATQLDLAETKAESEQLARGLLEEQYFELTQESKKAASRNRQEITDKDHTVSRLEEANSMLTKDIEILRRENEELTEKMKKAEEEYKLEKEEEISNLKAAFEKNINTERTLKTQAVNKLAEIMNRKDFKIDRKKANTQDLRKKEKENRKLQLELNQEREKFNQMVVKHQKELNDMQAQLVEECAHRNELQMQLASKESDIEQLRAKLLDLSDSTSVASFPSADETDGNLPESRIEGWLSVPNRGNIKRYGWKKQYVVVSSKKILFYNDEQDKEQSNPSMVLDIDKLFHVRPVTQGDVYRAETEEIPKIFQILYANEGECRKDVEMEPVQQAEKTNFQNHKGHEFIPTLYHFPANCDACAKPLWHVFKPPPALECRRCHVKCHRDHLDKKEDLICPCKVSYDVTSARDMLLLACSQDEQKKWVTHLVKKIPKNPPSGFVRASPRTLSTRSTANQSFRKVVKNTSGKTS

Ribosomal protein S6 kinase alpha-1, sequence (Q15418 whole entry): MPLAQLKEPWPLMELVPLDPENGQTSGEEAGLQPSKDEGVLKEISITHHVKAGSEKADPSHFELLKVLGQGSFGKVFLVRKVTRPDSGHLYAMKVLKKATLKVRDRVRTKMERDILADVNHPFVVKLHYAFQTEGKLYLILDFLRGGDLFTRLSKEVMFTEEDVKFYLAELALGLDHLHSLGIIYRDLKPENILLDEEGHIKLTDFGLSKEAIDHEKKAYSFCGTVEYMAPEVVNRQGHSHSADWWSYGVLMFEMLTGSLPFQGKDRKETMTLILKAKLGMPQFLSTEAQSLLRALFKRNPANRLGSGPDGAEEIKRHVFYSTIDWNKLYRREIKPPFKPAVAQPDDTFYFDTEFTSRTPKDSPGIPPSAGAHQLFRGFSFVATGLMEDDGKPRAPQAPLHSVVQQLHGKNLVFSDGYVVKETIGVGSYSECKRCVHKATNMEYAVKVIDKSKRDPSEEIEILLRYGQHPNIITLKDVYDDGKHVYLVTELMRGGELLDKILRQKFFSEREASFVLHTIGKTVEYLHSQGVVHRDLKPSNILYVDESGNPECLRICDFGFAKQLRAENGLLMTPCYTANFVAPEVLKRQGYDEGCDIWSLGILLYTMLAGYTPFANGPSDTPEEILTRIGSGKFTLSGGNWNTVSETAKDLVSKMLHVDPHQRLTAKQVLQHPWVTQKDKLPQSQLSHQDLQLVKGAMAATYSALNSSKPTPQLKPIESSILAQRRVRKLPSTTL
Serine/threonine-protein kinase pim-1, sequence (P11309 whole entry): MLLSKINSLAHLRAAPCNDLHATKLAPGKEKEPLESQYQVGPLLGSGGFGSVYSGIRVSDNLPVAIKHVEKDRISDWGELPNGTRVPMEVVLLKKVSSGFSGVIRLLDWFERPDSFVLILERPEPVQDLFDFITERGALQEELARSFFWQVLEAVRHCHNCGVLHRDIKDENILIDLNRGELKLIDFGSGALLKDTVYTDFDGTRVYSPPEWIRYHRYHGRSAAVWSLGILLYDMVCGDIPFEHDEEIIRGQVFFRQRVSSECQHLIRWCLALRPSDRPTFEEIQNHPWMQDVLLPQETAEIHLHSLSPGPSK

| IC50 [1] | IC50 [2] | IC50 ([1]; read-out: pIC50 (converted)) | IC50 ([2]; read-out: pIC50 (converted)) | SMILES | further results |
| --- | --- | --- | --- | --- | --- |
| 14.5 µM | 10.2 µM | 14.5 µM | 10.2 µM | O=C1Nc2ccc([N+](=O)[O-])cc2/C1=N/NC(=S)Nc1ccccc1 |  |
| 17 µM | 34.3 µM | 28.2 µM | 35.5 µM | C=CCNC(=S)N/N=C1\C(=O)Nc2ccc([N+](=O)[O-])cc21 |  |
| 4.4 µM | 30.3 µM | 4.37 µM |  | COc1ccc(NC(=S)N/N=C2\C(=O)Nc3c2ccc2ccccc32)cc1 |  |
| 39.3 µM | 5.2 µM | 38.9 µM | 5.25 µM | COc1ccc(NC(=S)N/N=C2\C(=O)Nc3ccc(F)cc32)cc1 |  |
| 19.6 µM | 9.3 µM | 19.5 µM | 9.33 µM | COc1ccc(NC(=S)N/N=C2\C(=O)N(C)c3ccccc32)cc1 |  |
| 26.3 µM | 6.7 µM | 26.3 µM | 6.76 µM | COc1ccc(NC(=S)N/N=C2\C(=O)Nc3ccc([N+](=O)[O-])cc32)cc1 |  |
| 27.7 µM | > 50 µM |  |  | COc1ccc(NC(=O)N/N=C2\C(=O)Nc3ccccc32)cc1 |  |
| 28.4 µM | 4 µM | 28.2 µM | 3.98 µM | O=C1Nc2ccc(Br)cc2/C1=N/NC(=S)Nc1ccc([N+](=O)[O-])cc1 |  |
| 13.1 µM | 5.8 µM | 13.2 µM | 5.75 µM | O=C1Nc2ccc(Br)cc2/C1=N/NC(=S)Nc1ccc(F)cc1 |  |
| > 50 µM | > 50 µM |  |  | COc1ccc(NC(=S)N/N=C2\C(=O)Nc3ccc(S(=O)(=O)O)cc32)cc1 |  |
| 26.1 µM | 20.7 µM | 26.3 µM | 20.9 µM | C=CCNC(=S)N/N=C1\C(=O)Nc2ccccc21 |  |

Second part, the molecule before the results:

| SMILES | IC50 [1] | IC50 [2] | IC50 ([1]; read-out: pIC50 (converted)) | IC50 ([2]; read-out: pIC50 (converted)) | further results |
| --- | --- | --- | --- | --- | --- |
| NC(=S)/N=N/c1c(O)[nH]c2ccccc12 | > 50 µM | > 50 µM |  |  |  |
| Cc1cnc(/C=N/NC(N)=S)c2cccc(N)c12 | 1.9 µM | 2.1 µM | 1.91 µM | 2.09 µM |  |
| COc1ccc(NC(=S)NN)cc1 | > 50 µM | > 50 µM |  |  |  |
| COc1ccc(NC(=S)N/N=C/c2ccccn2)cc1 | 3.4 µM | 2.4 µM | 3.39 µM | 2.4 µM |  |
| COc1ccc(NC(=S)NN=C2Cc3ccccc3C2)cc1 | > 50 µM | > 50 µM |  |  |  |
| COc1ccc(NC(=S)N/N=C2\CCc3ccccc32)cc1 | > 50 µM | > 50 µM |  |  |  |
| CCOC(=O)C(=CNC(=S)N/N=C1\C(=O)Nc2ccccc21)C(=O)OCC | > 50 µM | > 50 µM |  |  |  |
| COc1ccc(NC(=S)NNC2=c3ccccc3=NC2=O)cc1 | 14.2 µM | 3.3 µM | 14.1 µM | 3.31 µM | IC50 [3]: 34.9 µM; IC50 [4]: > 50 µM; IC50 [5]: > 50 µM; IC50 [6]: > 50 µM; IC50 [7]: > 50 µM; IC50 [8]: > 50 µM; IC50 [9]: > 50 µM; IC50 [10]: > 50 µM; IC50 [11]: > 50 µM |
| COc1ccc(NC(=S)N/N=C/c2ccc(NC(C)=O)cc2)cc1 | > 50 µM | > 50 µM |  |  |  |
| NC(=O)N/N=C1\C(=O)Nc2ccccc21 | > 50 µM | > 50 µM |  |  |  |
| CC(=O)Nc1ccc(/C=N/NC(N)=S)cc1 [AMITHIOZONE] | > 50 µM | > 50 µM |  |  |  |
| O=C1Nc2ccccc2C1=O [ISATIN] | > 50 µM | > 50 µM |  |  |  |
| NC(=S)N/N=C/c1ncccc1N [TRIAPINE] | 1.4 µM | 5.9 µM | 1.41 µM | 5.89 µM |  |
